Data from paper PMC8068036, “Synthesis of New Biscoumarin Derivatives, In Vitro Cholinesterase Inhibition, Molecular Modelling and Antiproliferative Effect in A549 Human Lung Carcinoma Cells” (International Journal of Molecular Sciences, 2021).
Like-named read-outs stand apart in the source and are kept apart here.

Key:
hMAO-B = test system: hMAO-B; parameters: method as in PMID 25812965, PMID 27744252, PMID 10213168; details: printed in Figure 2, quantity not named; cited from earlier work
AChE = test system: AChE; parameters: method as in PMID 25812965, PMID 27744252, PMID 10213168; details: Figure 2; cited from earlier work
BChE = test system: BChE; parameters: method as in PMID 25812965, PMID 27744252, PMID 10213168; details: Figure 2; cited from earlier work
rat brain AChE = test system: rat brain AChE; parameters: method as in PMID 10213168; details: cited from earlier work
A549 cancer cell line = details: ref 55 (Huang et al.); cited from earlier work
[1] = test system: human umbilical vein endothelial cell (HUVEC) cell line; details: ref 55 (Huang et al.); cited from earlier work
hBChE (human plasma) = target: T1, hBChE (human plasma) (Homo sapiens, UniProt P06276); test: biochemical; type: biochemical; details: human plasma BChE, mean of at least three experiments
T1 construct: Human plasma was used as a source of BChE; from tissue; host or cells: human plasma from heparinized blood
T1 sequence (P06276 29-602): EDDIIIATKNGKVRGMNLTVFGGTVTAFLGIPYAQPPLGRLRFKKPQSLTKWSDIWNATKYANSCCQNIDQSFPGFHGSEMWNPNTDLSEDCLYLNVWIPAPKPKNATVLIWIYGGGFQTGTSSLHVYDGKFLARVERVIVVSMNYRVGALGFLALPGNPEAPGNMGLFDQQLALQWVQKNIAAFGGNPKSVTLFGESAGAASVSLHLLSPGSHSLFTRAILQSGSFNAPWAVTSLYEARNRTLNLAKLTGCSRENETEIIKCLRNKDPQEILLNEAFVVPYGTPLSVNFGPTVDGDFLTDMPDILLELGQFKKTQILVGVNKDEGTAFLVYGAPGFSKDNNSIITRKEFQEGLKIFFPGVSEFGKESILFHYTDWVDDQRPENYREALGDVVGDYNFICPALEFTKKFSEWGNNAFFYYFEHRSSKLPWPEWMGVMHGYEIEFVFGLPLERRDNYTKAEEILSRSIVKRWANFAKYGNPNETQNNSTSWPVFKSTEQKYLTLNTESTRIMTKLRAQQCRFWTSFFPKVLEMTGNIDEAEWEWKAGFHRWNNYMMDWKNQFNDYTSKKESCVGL
Experimental: (§1) Human recombinant AChE (EC 3.1.1.7), 5,5′-dithiobis(2-nitrobenzoic acid) (Ellman′s reagent, DTNB), phosphate buffer (PB, 0.1 M, pH 7.4), and acetylthiocholine (ATC) and butyrylthiocholine (BTC), were purchased from Sigma-Aldrich, Prague, Czech Republic. Human plasma was used as a source of BChE and was prepared from heparinized human blood. The blood was centrifuged for 20 min (4 °C, 2300× g) on a Hettich Universal 320R centrifuge. The plasma was separated and stored at […]. Polystyrene Nunc 96-well microplates with a flat bottom shape (ThermoFisher Scientific, Waltham, MA, USA) were used for measuring purposes.
(§2) All of the assays were carried out in a 0.1 M phosphate buffer, pH 7.4. The assay medium (100 µL) consisted of 40 µL of 0.1 M phosphate buffer (pH 7.4), 20 µL of 0.01 M DTNB, 10 µL of the enzyme, and 20 µL of 0.01 M substrate ATC/BTC iodide solution).
(§3) The tested compounds were preincubated for 5 min prior to use. The reaction was initiated immediately upon addition of 20 µL of the substrate. […] Each concentration was assayed in triplicate. Software GraphPad Prism 5 (San Diego, CA, USA) was used in the evaluation of the statistical data.

human recombinant AChE = target: T2, human recombinant AChE (Homo sapiens, UniProt P22303); test: biochemical; type: biochemical; details: mean of at least three experiments
T2 construct: purchased Sigma-Aldrich, Prague, Czech Republic
T2 sequence (P22303 32-614): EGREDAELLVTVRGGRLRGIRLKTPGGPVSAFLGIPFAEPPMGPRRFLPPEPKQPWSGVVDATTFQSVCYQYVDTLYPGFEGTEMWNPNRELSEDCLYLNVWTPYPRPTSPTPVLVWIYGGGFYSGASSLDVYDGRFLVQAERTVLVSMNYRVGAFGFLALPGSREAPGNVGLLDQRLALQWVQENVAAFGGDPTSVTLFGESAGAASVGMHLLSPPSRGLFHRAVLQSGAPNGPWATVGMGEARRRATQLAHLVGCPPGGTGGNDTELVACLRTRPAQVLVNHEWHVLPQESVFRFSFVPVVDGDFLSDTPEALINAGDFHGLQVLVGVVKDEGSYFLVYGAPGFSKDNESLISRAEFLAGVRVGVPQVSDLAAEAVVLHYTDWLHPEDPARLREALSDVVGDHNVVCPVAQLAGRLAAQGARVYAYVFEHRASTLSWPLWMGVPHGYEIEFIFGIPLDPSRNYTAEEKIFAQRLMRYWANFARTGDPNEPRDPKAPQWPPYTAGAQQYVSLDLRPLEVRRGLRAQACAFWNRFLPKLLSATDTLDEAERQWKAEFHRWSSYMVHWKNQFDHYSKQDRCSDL
Experimental: as §1, §2, §3

in vitro = test: in vitro
Experimental: The parallel artificial membrane permeability assay (PAMPA) is used as a non-cell-based in vitro assay to predict BBB penetration and is carried out in a coated 96-well membrane filter. In our assays, the filter membrane of the donor plate was coated with PBL (Polar Brain Lipid, Avanti, Denver, CO, USA) in dodecane (4 µL of 20 mg mL^−1 PBL in dodecane), and the acceptor well was filled with 300 µL of phosphate buffered saline (PBS) (pH 7.4; VA). The tested compounds were first dissolved in DMSO, and the resulting mixture was diluted with PBS (pH 7.4) to reach the final concentration (40–100 µM) in the donor well. […] Three hundred microliters of the donor solution (VD) were added to the donor wells, and the donor filter plate was carefully placed onto the acceptor plate to ensure that the coated membrane was “in contact” with both the donor solution and the acceptor buffer. The test compound diffused from the donor well through the polar brain lipid membrane (area = 0.28 cm^2) to the acceptor well. The concentration of the tested compound in both the donor and acceptor wells was assessed after 3, 4, 5, and 6 h of incubation, respectively, in quadruplicate using a UV plate reader Synergy HT (Biotek, Winooski, VT, USA) at the maximum absorption wavelength of each compound. Additionally, solutions at the theoretical equilibrium of the given compound (i.e., the theoretical concentration if the donor and acceptor compartment were simply combined) were also prepared.

A549 cells [2] = test: MTT assay, A549; type: cell-based, human; details: for IC50: Homo sapiens
Experimental: Human lung carcinoma cell line A549 and CCD-18Co colon fibroblasts were purchased from the American Type Culture Collection (ATCC, Rockville, MD, USA). The A549 cells were cultured in a complete RPMI-1640 medium (Sigma-Aldrich, St. Louis, MO, USA), and CCD-18Co cells were cultured in an MEM medium (PAN-Biotech GmbH, Aidenbach, Germany). The media were supplemented with 10% fetal bovine serum (FBS; Biosera, Nuaille, France) and antibiotics (1% Antibiotic-Antimycotic 100× and 50 × 10^−3 g l^−1 gentamicin; Biosera) at 37 °C, 95% humidity, and 5% CO2.
Prior to the selected treatments, cells were seeded on 12-well μ-Chamber slides (ibidi GmbH, Martinsried, Germany) and 6 and/or 96-well plates (TPP, Trasadingen, Switzerland) and left to settle for 24 h. The biscoumarin derivative solutions (at concentrations ranging from 10–100 µM) were then added to cells for 24 or 48 h, and analysis was subsequently performed.
MTT assays were performed in order to evaluate changes in the metabolic activity of cells that had occurred as a consequence of treatment with the biscoumarin derivatives. A549 cells (15 × 10^3 cells/cm^2) and CCD-18Co ([…]) were seeded in 96-well microplates. The cells were treated for 24 and 48 h with different concentrations (10, 25, 35, 50, 65, 75, and 100 µM) of the derivatives. After the treatment, the MTT (3-(4,5-dimethylthiazol-2-yl)-2,5-diphenyltertrazolium bromide) solution in PBS (5 mg mL^−1) was added to each well. […]. The absorbance of formazan (λ = 584 nm) was measured using a BMG FLUOstar Optima spectrometer (BMG Labtech GmbH, Offenburg, Germany). The results were evaluated as percentages of the absorbance of the untreated control. Results are presented as the average percentage of cells from three independent experiments. IC50 values for the derivatives were extrapolated from a sigmoidal fit (dose–response curve) to the metabolic activity data using OriginPro 8.5.0 SR1 (OriginLab Corp., Northampton, MA, USA).

A549 cells [3] = test: Mitotic activity (Ki67 index) by immunolabelling and confocal microscopy; type: cell-based, human; details: 24 h, vs control
Experimental: The studied biscoumarin derivatives were added to cells seeded on 12-well μ-Chamber slides for 24 h. After cultivation with the derivatives, the samples (both the control without the derivatives and experimental groups) were washed with a 0.1 M PBS solution buffer to remove all non-cell-absorbed derivative residues and fixed with 4% paraformaldehyde for 20 min at RT. Alternatively, cells were incubated with Mitotracker Red (0.5 µM; Thermo Fisher Scientific, Waltham, MA, USA) for 30 min at 37 °C, washed with 0.1 M PBS, and fixed with 4% paraformaldehyde for 20 min at RT. For the quantification of proliferative activity and programmed cell death, samples were incubated overnight at 4 °C with the mouse anti-Ki67 antibody (NCL-L-Ki67-MM1, 1:100, Leica Biosystems, Wetzlar, Germany) and rabbit anti-cleaved PARP (cat. no. 94885, 1:100, Cell Signaling, Danvers, MA, USA) diluted in 0.1 M PBS containing 1% normal donkey serum (Jackson Immunoresearch, Cambridgeshire, Great Britain) and 0.3% Triton-X 100. […]
All samples were evaluated using a Leica TCS SP5X confocal system (Leica Microsystems, Mannheim, Germany). The biscoumarin derivatives were visualized in cells using a 405 nm laser, and the fluorescence was captured in the range of 420–480 nm with identical exposure parameters for all samples. […] Microphotographs were taken with a 40× objective lens (NA = 0.75; voxel size 223 × 223 nm) and a 63× oil lens (NA = 1.4; voxel size 171 × 171 nm); the images were captured and analyzed using LAS AF software (Leica Microsystems, Wetzlar, Germany).
The proliferative activity of cells incubated with the studied derivatives was expressed as a Ki67 index. In all samples (n = 3 samples per each experimental group), the number of Ki67^+ nuclei was calculated in groups of 100 randomly selected cells. […]

hAChE = test system: hAChE; parameters: method as in PMID 25812965, PMID 27744252, PMID 10213168; details: Figure 2; cited from earlier work

Question: Which results are given for `Cc1c(N=O)c(=O)oc2cc(CCCN3CCC(Cc4ccccc4)CC3)ccc12` [compound 7]?
Answer: IC50 (hMAO-B): 5.9 µM; IC50 (AChE): 0.3 µM; IC50 (BChE): 0.98 µM

Question: For `COc1cc2oc(=O)c(C)c(C)c2cc1OCCCN1CCN(c2ccccc2OC)CC1` [KA-672, ensaculin], which IC50 (rat brain AChE) is on record?
Answer: Its IC50 is 0.36 µM.

Question: For `N.N.[Cl][Pt][Cl]` [cisplatin], which IC50 (A549 cancer cell line) is on record?
Answer: The IC50 was 13.5 µM.

Question: And the IC50 [1]?
Answer: The IC50 was 9.68 µM.

Question: Which results are given for `O=c1[nH]cc(F)c(=O)[nH]1` [5-fluorouracil]?
Answer: IC50 (A549 cancer cell line): 36.3 µM; IC50 [1]: 25.1 µM

Question: For `COC(=O)Cc1cc(=O)oc2cc(OCCCN3CCN(CCNC(=O)Cc4cc(=O)oc5cc(O)ccc45)CC3)ccc12` [12a], which “IC50 ± S.E.M. hBChE” value (hBChE (human plasma)) is on record?
Answer: Its value is “did not show inhibitory activity”.

Question: What about the IC50 (hBChE (human plasma); read-out: IC50 ± S.E.M. hBChE) of the same molecule?
Answer: Its IC50 is > 500 µM.

Question: What about the “IC50 ± S.E.M. hAChE” value (human recombinant AChE) of the same molecule?
Answer: The value was “did not show inhibitory activity”.

Question: What about the IC50 (human recombinant AChE; read-out: IC50 ± S.E.M. hAChE) of the same molecule?
Answer: The IC50 was > 500 µM.

Question: And the Papp (in vitro; PAMPA, pH 7.4)?
Answer: Its Papp is 1.53 ± 0.64 ×10⁻⁶ cm/s.

Question: And the “CNS Predicted Availability” value (in vitro; classification from PAMPA-BBB Pe)?
Answer: The value was “CNS− (CNS−: low BBB permeation predicted with Pe (×10^−6 cm s^−1) < 2.0)”.

Question: And the “Metabolic activity of A549 cells (in words)” value (A549 cells [2]; 10 to 100 μM, 24 and 48 h)?
Answer: The value was “did not lose the ability to convert dye”.

Question: And the IC50 (A549 cells [2]; A549, 24 h, read-out: IC50 A549 24 h)?
Answer: The IC50 was > 100 µM.

Question: And the IC50 (A549 cells [2]; A549, read-out: IC50 A549 48 h, 48 h)?
Answer: Its IC50 is > 100 µM.

Question: What about the “Number of proliferating cells (Ki67 index), in words” value (A549 cells [3]) of the same molecule?
Answer: The value was “no significant changes”.

Question: With `Cc1c(C)c2ccc(OCCN3CCN(CCNc4c5c(nc6ccccc46)CCCC5)CC3)cc2oc1=O` [compound 6] as the molecule, how does the IC50 (hAChE) read?
Answer: The IC50 was 0.0161 µM.
